We go through 2 molecules from patent publication US9549922B2, “Use of eribulin and lenvatinib as combination therapy for treatment of cancer” (priority 2013, dated 2017).

“Also recorded” adds a separate entry of the source.

Series [1] relates to A375 human malignant melanoma xenografts. In words: Antitumor activity in A375 human malignant melanoma xenograft model (tumor volume). The note with it: single agent at highest dose: E7389 3.0 mg/kg i.v. Q7Dx2; E7080 15 mg/kg p.o. Q1Dx14; female athymic mice. The format is in vivo. An excerpt:
Following randomization, drug treatment was initiated.
A value of P<0.05 was considered statistically significant.

For series [2], the system named is NCI-H1993 human non-small cell lung cancer xenografts. The series is described as follows: Antitumor activity in NCI-H1993 human non-small cell lung cancer xenografts (tumor volume). The format is in vivo, mice. The note with it: single treatment: E7389 1.5 mg/kg i.v. Q7Dx2; E7080 10 mg/kg p.o. Q1Dx12. The procedure: (§1) Human non-small cell lung cancer cell lines, NCI-H1993 and PC-9, were maintained in monolayer cultures in RPMI-1640 medium supplemented with 10% Fetal Bovine Serum and 1% of Penicillin-Streptomycin-Amphotericin at 37° C. in a 5% CO2 humidified incubator. On the day of inoculation, cells were harvested by Trypsinization, washed, and mixed 1:1 (v/v) with medium/GelTrex. NCI-H1993 and PC-9 human non-small cell lung cancer cells (10×10^6 cells per animal) were inoculated subcutaneously near the right axillary area using a 26-gauge needle in a 0.1 mL volume in female immuncompromised mice (Mouse: BALB/c Slc nu/nu; Japan SLC, Inc.).
(§2) The experiment consisted of a no inject control group, a single agent drug-treated group for either E7389 (1.5 mg/kg) or E7080 (10 mg/kg), and combination drug-treated groups. Each group was composed of five mice. […] Following randomization, drug treatment was initiated. E7389 (1.5 mg/kg) was intravenously administered weekly for two weeks (Q7Dx2). E7080 was orally administered daily for 12 days (Q1Dx12). Both drugs were administered at a volume of 0.1 mL per 10 g body weight.
(§3) Tumor volume was determined by caliper measurements (mm) using the formula Tumor volume (mm^3)=length (mm)×width^2(mm^2)×½
(§4) The mean±SD for tumor volume for each experimental group was calculated. […]

Series [3] deals with PC-9 human non-small cell lung cancer xenografts. In words: Antitumor activity in PC-9 human non-small cell lung cancer xenografts (tumor volume). The note with it: single treatment: E7389 1.5 mg/kg i.v. Q7Dx2; E7080 10 mg/kg p.o. Q1Dx12. It counts as in vivo, mice. As to the method:
as §1, §2, §3, §4
For orientation: In xenograft studies the graft and the host belong to different species.

The next series in a line: in vivo. The note with it: athymic, mouse.
Series [4] is described as follows: Relative body weight change in A375 xenograft study. The format is in vivo, mice. To be noted: E7389 alone at 3.0 mg/kg i.v. Q7Dx2.
Procedure: The experiment consisted of a vehicle-treated control group, a single agent drug-treated group for either E7389 or E7080, and three combination drug-treated groups (summarized in Table 1). Each group was composed of six mice for a total of 48 mice on the first day of treatment. […] Following randomization, drug treatment was initiated. E7080 was orally administered daily for 14 days (Q1Dx14) at a volume of 0.1 mL per 10 g body weight. E7389 (0.05 mg/kg) was intravenously administered daily for 14 days. In the combination group, E7389 was administered three hours after oral administration of E7080. […]
The general health of the mice was monitored daily. Tumor volume was determined by caliper measurements (mm) using the formula (1×w^2)/2=mm^3, where 1 and w refer to the larger and smaller perpendicular dimensions collected at each measurement. Tumor dimensions and body weight were recorded twice per week starting the first day of treatment. Relative body weight was calculated as follows: Relative body weight=(body weight on day of measurement)/(body weight on first day of treatment).
The data generated consisted of group mean body weights at each measurement and group mean tumor volumes at each measurement. The mean±SEM for tumor volume and relative body weight for each experimental group was calculated.

`COc1cc2nccc(Oc3ccc(NC(=O)NC4CC4)c(Cl)c3)c2cc1C(N)=O.CS(=O)(=O)O` [E7080, 4-[3-chloro-4-[[(cyclopropylamino)carbonyl]amino]phenoxy]-7-methoxy-6-quinolinecarboxamide, methanesulfonate (1:1)]: in series [1], the “antitumor effect (tumor volume)” value is on record as “tumor growth delay, but not tumor regression”. Besides, the “antitumor activity (tumor volume)” value in series [2] and in series [3] was “significant antitumor activity” in each case. The same molecule registered an MTD at 14 days in the series “in vivo” of 15 mg/kg.

Turning to `C=C1C[C@@H]2CC[C@@]34C[C@H]5O[C@@H]6[C@@H](O3)[C@H]3O[C@H](CC[C@@H]3O[C@H]6[C@H]5O4)CC(=O)C[C@@H]3[C@@H](OC)[C@@H](C[C@H](O)CN)O[C@H]3C[C@H]3O[C@@H](CC[C@@H]1O2)C[C@@H](C)C3=C.CS(=O)(=O)O` [E7389, (2R,3R,3aS,7R,8aS,9S,I0aR,11S,12R,13aR,13bS,15S,18S,21S,24S,26R,28R,29aS)-2-[(2S)-3-amino-2-hydroxypropyl]hexacosahydro-3-methoxy-26-methyl-20,27-bis(methylene)-11,15:18,21:24,28-triepoxy-7,9-ethano-12,15-methano-9H,15H-furo[3,2-i]furo[2′,3′:5,6]pyrano[4,3-b][1,4]dioxacyclopentacosin-5(4H)-one, methanesulfonate (salt)], the “antitumor effect (tumor volume)” value in series [1] is listed as “tumor growth delay, but not tumor regression; also recorded: strong antitumor activity”. Further, in series [4], the “relative body weight change” value is “Body weight loss was observed”. The “antitumor activity (tumor volume)” value in series [2] and in series [3] was “significant antitumor activity” each time. This molecule also gave an MTD at 14 days in the series “in vivo” (other: E7389 i.v., E7080 p.o.) of 3 mg/kg.
